The subject of data set [1] is plasmid DNA. Description: Plasmid DNA interaction, agarose gel electrophoresis. In kind it is biochemical. The note with it: 200 ng plasmid DNA, 100–400 μM, cell-free. The procedure: The ability of compounds to intercalate, nick, or cleave DNA can be evaluated using gel electrophoresis with plasmid DNA. In this study, in vitro plasmid DNA assays were performed by incubating 200 ng of plasmid DNA with different concentrations (100–400 μM) of 1 or CDDP, which served as a positive control. The DNA fragments were then separated via agarose gel electrophoresis, and potential changes in DNA migration patterns were analyzed.
5 Plasmid DNA (200 ng) was incubated with varying concentrations (100, 200, and 400 μM) of compound 1 or CDDP for 24 h at room temperature. The DNA was then separated via agarose gel electrophoresis, and the intensity of supercoiled and nicked circular DNA bands was quantified and expressed as mean ± SEM (n = 4).
MDA-MB-231 cells at 4000 cells/well were seeded into a black clear -bottom 96-well plate using phenol-red free complete RMPI medium, and incubated for 48 h. […] Fluorescence images were obtained using a Zeiss Observer 7 inverted microscope at excitation at 488 nm and emission at 509 […]
Plasmid DNA (200 ng, pBOS -H2B-GFP, BD Biosciences) was incubated overnight at room temperature with 1 or CDDP at concentrations between 100 and 400 μM in double -distilled H2O (20 μL total volume). […] The experiment was conducted in two biological replicates, and the band intensities were quantified and analyzed using ImageJ software. […]

The test system of data set [2] is MDA-MB-231 cells. Description: 3D spheroid live/dead viability assay. In kind it is cell-based, human. The note with it: MDA-MB-231 spheroids, 100 μM, 48 h. Here is the method: 3D cell cultures of cancer are good models for preclinical cancer research, as they are more representative of tumor microenvironments. MDA-MB-231 cells were maintained using the standard cell culture methods before seeding into round-bottom ultralow-attachment plates for 3D culture. Once the cells were seeded, the plate was centrifuged to assist with cell clumping at the bottom of the well and facilitate uniform spheroid formation. After 24 h, medium containing collagen I was added, and the cells were allowed to aggregate further. After sufficient growth of the spheroids (Day 4 – Figure ), the cells were treated with 100 μM of 1 for 48 h. The higher concentration was chosen, as it has been reported that spheroids require higher drug doses than two-dimensional (2D) experiments.
Live and dead cells were then visualized using the LIVE/DEAD Viability/Cytotoxicity Kit by Invitrogen. […]
An equal volume of Annexin V and 7-AAD solution was added to 100 μL of the cell suspension, followed by a 20 min incubation at room temperature. The cells were then analyzed using the Muse Cell Analyzer (Merck Millipore). […]
A mixture of 50 μL of cell suspension and 5 μL of Caspase 3/7 antibody (diluted 1:8 in PBS) was prepared and incubated at room temperature for 30 minutes. […] Apoptotic cells were analyzed using the Muse Cell Analyzer. […]

As to “[Cp*Ir(C16H14NO)(PTA)](PF6) [Compound 1]”, the “Plasmid DNA migration” value in data set [1] is on record as “did not induce any apparent shift”. Besides, the “Cytotoxicity in 3D spheroids (live/dead staining)” value in data set [2] is “significant cytotoxicity”.

For the origin of these results see paper PMC12406195, “Understanding the Modes of Action of β‑Ketoiminato Iridium(III) Complexes in Cancer Cells” (Inorganic Chemistry, 2025).
